Values quoted from earlier work as cited in patent US20220160670A1, “COMPOSITION COMPRISING L-CARNITINE FOR THE TREATMENT OF MALE INFERTILITY” (LABORATOIRE DES GRANIONS, priority 2017, published 2022).

Legend:
[1] = tested on: total forward motility of spermatozoa; conditions: treatment of 6 months; 3 g/day L-carnitine, 3 g/day L-acetylcarnitine, or 2 g/day + 1 g/day combined
[2] = tested on: number and total forward motility of spermatozoa; conditions: 2 g/day for 2*2 months; patients with 10 to 20 million/ml and total mobility 10% to 30% at inclusion

SMILES | effect on total forward motility of spermatozoa [1] | effect on number of spermatozoa [2] | effect on total forward motility of spermatozoa [2]
CC(=O)O[C@H](CC(=O)[O-])C[N+](C)(C)C [L-acetylcarnitine] | significantly increases | – | –
C[N+](C)(C)C[C@H](O)CC(=O)[O-] [L-carnitine] | significantly increases | increase | increase
